Structures can show the parent of a compound that is named as a salt.
Legend:
[1] = system: adjuvant arthritis; assay: Adjuvant arthritis model: erythrocyte sedimentation rates; assay type: in vivo, male Lewis rats; conditions: 100 mg/kg at 12-hour intervals for 20 days; for effect on increase in erythrocyte sedimentation rates (in words): vs control; for Erythrocyte sedimentation rates: day 21, control 33 ± 2, normal 1 ± 0.1, ** P < 0.01 vs control (Compound D)
Experimental: (§1) 8-week old male Lewis rats (Charles River Japan, K.K.) were divided into 4 groups (normal control group, control group, and two test compound groups) of 7 animals each. Each of the rats of the control group and the test compound groups were intra-dermally injected with 0.6 mg of heat-killed M. butyricum in 0.1 ml of liquid paraffin suspension in their right hind paw to induce adjuvant arthritis. The test compounds were suspended in 0.5% CMC, and administered to the rats of the test compound group at a dose of 100 mg/kg per administration immediately after the injection of adjuvant and at 12-hour intervals thereafter over a period of 20 days. The rats of the control group received 0.5% CMC immediately after the injection of adjuvant and at 12-hour intervals thereafter over a period of 20 days. The rats of the normal control group were not injected with adjuvant but only administered 0.5% CMC analogously to the administration of the test compounds.
The blood was fully removed on day 21 and used as a sample. Erythrocyte sedimentation measuring apparatus (Matsuyoshi's Erythrocyte Sedimentation rack) was used for the measurement, and statistical analysis was made according to the Dunnett's method for the superiority of the test compound group over the control group.

[2] = set-up: species or system mice; conditions: mouse, in vivo, 3000 mg/kg
[3] = system: bone resorption; assay: Test for inhibition of bone resorption: urine hydroxyproline/creatinine ratio in rats on calcium-deficient food; assay type: in vivo, male Wister rats; conditions: for effect on increase in urine hydroxyproline/creatinine ratio (in words): 100 mg/kg p.o., vs control; for Urinary hydroxyproline excretion (ratio to creatinine): single 100 mg/kg p.o., urine 16 hours, control 174 ± 7, normal 134 ± 7, * P < 0.05 vs control (Compound D)
Experimental: Furthermore, an investigation of its suppressive effect was carried out on bone resorption by administering the compound of the present invention to rats kept on a calcium-deficient food and using the urinary hydroxyproline excretion (ratio to creatinine) as an index.
(§2) After the last administration of the test compounds on day 20, the rats were transferred into metabolic cages, and urine samples were collected overnight without supply of food or water. Urine volume and the amounts of creatinine and hydroxyproline were determined by the following method, and urinary hydroxyproline excretion expressed in the ratio to creatinine. Statistical analysis was made according to the Tukey's method for the superiority of test compound group over the control group. Determination of creatinine was carried out using Creatinine TestWAKO (Wako Junyaku). Hydroxyproline was determined by first hydrolyzing the urine with 6N hydrochloric acid, then isolation on high performance liquid chromatograph equipped with ion-exchange column (Hitachi Gel #2619), reaction with O-phthalaldehyde to form a hydroxyproline derivative, and measurement on a fluorophotometer.
6-week old male Wister rats (SLC Japan) were kept on a calcium-deficient food (Oriental Yeast, 0.0105-0.012% calcium, 0.62% phosphorus), orally administered 100 mg/kg of compound D or Y in a 0.5% CMC suspension on day 6 and, immediately thereafter, urine was collected for 16 hours under the condition of fasting with free access to water. The urine volume and urinary hydroxyproline and creatinirie content were measured by the method described in Example 3, and the urine hydroxyproline/creatinie ratio was calculated. Statistical analysis was made using the Tukey's method for the superiority of the test compound group over the control group.

[4] = system: collagenase; assay: Activity in the living body / absorbability (general statements); conditions: in vivo
[5] = system: adjuvant arthritis; assay: Adjuvant arthritis model: serum calcium concentration; assay type: in vivo, male Lewis rats; conditions: 100 mg/kg at 12-hour intervals for 20 days; for effect on increase in serum calcium concentration (in words): vs control; for Serum calcium conc.: day 21, control 9.5 ± 0.1, normal 8.6 ± 0.1, ** P < 0.01 vs control (Compound D)
Experimental: as §1
Measurement was carried out on the same sample as above 2) using Calcium TestWAKO (Wako Junyaku), and statistical analysis was made according to the Dunnett's method for the superiority of the test compound group over the control group.

[6] = system: adjuvant arthritis; assay: Adjuvant arthritis model: hind paw volume (swelling of adjuvant-uninjected hind paw); assay type: in vivo, male Lewis rats; conditions: 100 mg/kg at 12-hour intervals for 20 days; FIG. 1; t-test vs control
Experimental: as §1
The volume of the hind paw was measured immediately before and on days 3, 7, 10, 14, 17 and 20 after the injection of adjuvant using a foot volume measuring apparatus. Analysis was made using t-test for superiority of the test compound group over the control group.
In the figure, lines n, c, y and d indicate the volume of the hind paw for the following groups, respectively: […]

[7] = system: adjuvant arthritis; assay: Adjuvant arthritis model: urinary hydroxyproline excretion; assay type: in vivo, male Lewis rats; conditions: for Urinary hydroxyproline excretion (ratio to creatinine): after day 20, 100 mg/kg at 12-hour intervals, control 94.3 ± 1.8, normal 71.8 ± 2.6
Experimental: as §1, §2

[8] = system: collagenase; assay: Collagenase activity inhibition rate in blood after oral administration (in mice); assay type: in vivo; conditions: 30 mg/kg p.o.; for Collagenase Inhibition rates in blood after oral administration, After 2 hours: after 2 hours (as printed in head; text says 3 hours)
Experimental: (§3) Test compounds were suspended in 0.5% CMC and orally administered to three mice per group (the dose of the test compound, 30 mg/kg), and after a certain period of time, the blood was collected in the presence of heparin and ice-cooled. Plasma was obtained by centrifugation of this blood at 10,000 rpm for 5 minutes at 4° C. To 400 μl of this plasma was added to 600 μl of distilled water, and heated at 100° C. for 10 minutes. After cooling, the mixture was centrifuged at 10,000 rpm for 5 minutes and filtered using a micro-volume ultrafiltration unit (Molcut II, Millipore) to provide a sample (A) for use in collagenase activity measurement. Using this sample, collagenase activity inhibition rate in blood was determined by the following method.
(§4) The sample (A) above was mixed with a known amount of collagenase (the collagenase used was prepared by the method described in JP-A-3-103178) dissolved in a buffer for measurement (50 mM Tris-HCl buffer, pH 7.5, containing 0.2M sodium chloride, 5 mM calcium chloride, 0.05% Brij-35 and 0.02% sodium azide,), and collagenase activity A was measured according to the method of Nagai et al. (Japanese Journal of Inflammation, 4, 123 (1984)) using a fluorescein isothiocyanate-labeled type-I collagen as a substrate. […] Inhibition rate was determined from the following equation:
(§5) Inhibition rate (%)=(1-A/B)×100

[9] = system: collagenase; assay: Collagenase activity inhibition rate in blood after oral administration (in rats); assay type: in vivo; conditions: 100 mg/kg p.o.
Experimental: as §3, §4, §5
The same procedure as Test Example 1 was followed except that mice were replaced with rats (3 rats/group) and the dose of the tested compounds selected to be 100 mg/kg.

CNC(=O)C(NC(=O)C(CC(C)C)C(C)C(=O)NO)c1ccccc1 (single isomer, unassigned) [Compound D]
effect on increase in erythrocyte sedimentation rates (in words) [1]: significantly suppressed the increase in erythrocyte sedimentation rates | Erythrocyte sedimentation rates [1]: 20 ± 2 | death after oral administration [2]: no death was observed | effect on increase in urine hydroxyproline/creatinine ratio (in words) [3]: exhibited a significant suppression from the level of the control group | Urinary hydroxyproline excretion (ratio to creatinine) [3]: 144 ± 5 μg/mg creatinine | activity in the living body (in words) [4]: exhibits an excellent activity in the living body | effect on increase in serum calcium concentration (in words) [5]: significantly suppressed the increase in serum calcium concentration | Serum calcium conc. [5]: 8.9 ± 0.1 mg/dL | swelling (volume increase) of the adjuvant-uninjected hind paw [6]: suppressed the swelling (volume increase) of the adjuvant-uninjected hind paw | effect on increase in urinary hydroxyproline excretion (in words) ([7]; 100 mg/kg at 12-hour intervals for 20 days): tended to suppress the increase in urinary hydroxyproline excretion | Urinary hydroxyproline excretion (ratio to creatinine) [7]: 78.4 ± 6.1 μg/mg creatinine | Collagenase Inhibition rates in blood after oral administration, After 1 hour [8]: 87% | Collagenase Inhibition rates in blood after oral administration, After 2 hours [8]: 76%

CNC(=O)C(NC(=O)C(CC(=O)NO)CC(C)C)c1ccccc1 [Compound A, [4-(N-hydroxyamino)-2(R)-isobutylsuccinyl]-L-phenylglycine-N-methylamide]
Collagenase Inhibition rates in blood after oral administration, After 1 hr. [9]: 100% | Collagenase Inhibition rates in blood after oral administration, After 3 hrs. [9]: 91% | Collagenase Inhibition rates in blood after oral administration, After 6 hrs. [9]: 64% | Collagenase Inhibition rates in blood after oral administration, After 1 hour [8]: 88% | Collagenase Inhibition rates in blood after oral administration, After 2 hours [8]: 83%

CNC(=O)C(NC(=O)C(CC(=O)NO)CC(C)C)c1ccc(O)cc1 [Compound B, [4-(N-hydroxyamino)-2(R)-isobutylsuccinyl]-L-(p-hydroxyphenyl)glycine-N-methylamide]
Collagenase Inhibition rates in blood after oral administration, After 1 hour [8]: 84% | Collagenase Inhibition rates in blood after oral administration, After 2 hours [8]: 62%

CNC(=O)C(NC(=O)C(CC(C)C)C(CN1CCOCC1)C(=O)NO)c1ccccc1 [Compound C, [4-(N-hydroxyamino)-2(R)-isobutyl-3-(morpholinomethyl)succinyl]-L-phenylglycine-N-methylamide hydrochloride]
Collagenase Inhibition rates in blood after oral administration, After 1 hour [8]: 75% | Collagenase Inhibition rates in blood after oral administration, After 2 hours [8]: 64%

CNCC(C(=O)NO)C(CC(C)C)C(=O)NC(C(=O)NC)c1ccccc1 [Compound E, [4-(N-hydroxyamino)-2(R)-isobutyl-3-(methylaminomethyl)succinyl]-L-phenylglycine-N-methylamide]
Collagenase Inhibition rates in blood after oral administration, After 1 hour [8]: 82% | Collagenase Inhibition rates in blood after oral administration, After 2 hours [8]: 61%

CCNC(=O)C(NC(=O)C(CC(=O)NO)CC(C)C)c1ccccc1 [Compound F, [4-(N-hydroxyamino)-2(R)-isobutylsuccinyl]-L-phenylglycine-N-ethylamide]
Collagenase Inhibition rates in blood after oral administration, After 1 hour [8]: 89% | Collagenase Inhibition rates in blood after oral administration, After 2 hours [8]: 53%

CNC(=O)C(NC(=O)C(CC(=O)NO)CC(C)C)c1ccc(F)cc1 [Compound G, [4-(N-hydroxyamino)-2(R)-isobutylsuccinyl]-L-(p-fluorophenyl)glycine-N-methylamide]
Collagenase Inhibition rates in blood after oral administration, After 1 hour [8]: 83% | Collagenase Inhibition rates in blood after oral administration, After 2 hours [8]: 64%

CNC(=O)C(NC(=O)C(CC(=O)NO)CC(C)C)c1ccc(C(C)C)cc1 [Compound H, [4-(N-hydroxyamino)-2(R)-isobutylsuccinyl]-L-(p-isopropylphenyl)glycine-N-methylamide]
Collagenase Inhibition rates in blood after oral administration, After 1 hour [8]: 74% | Collagenase Inhibition rates in blood after oral administration, After 2 hours [8]: 63%

CNC(=O)[C@H](Cc1ccc(OC)cc1)NC(=O)[C@@H](CC(=O)NO)CC(C)C [Known compound X, [4-(N-hydroxyamino)-2(R)-isobutylsuccinyl]-L-O-methyltyrosine-N-methylamide, reference compound]
Collagenase Inhibition rates in blood after oral administration, After 1 hr. [9]: 45% | Collagenase Inhibition rates in blood after oral administration, After 3 hrs. [9]: 44% | Collagenase Inhibition rates in blood after oral administration, After 6 hrs. [9]: 33% | Collagenase Inhibition rates in blood after oral administration, After 1 hour [8]: 60% | Collagenase Inhibition rates in blood after oral administration, After 2 hours [8]: 43%

CNC(=O)[C@H](Cc1ccccc1)NC(=O)[C@H](CC(C)C)[C@H](CSc1cccs1)C(=O)NO [Known compound Y, [4-(N-hydroxyamino)-2(R)-isobutyl-3(S)-(2-thienyl)thiomethylsuccinyl]-L-phenylalanine-N-methylamide, reference compound]
effect on increase in erythrocyte sedimentation rates (in words) [1]: no such effect was noted | Erythrocyte sedimentation rates [1]: 30 ± 3 | effect on increase in urine hydroxyproline/creatinine ratio (in words) [3]: hardly suppressed this increase | Urinary hydroxyproline excretion (ratio to creatinine) [3]: 161 ± 3 μg/mg creatinine | effect on increase in serum calcium concentration (in words) [5]: no such effect was noted | Serum calcium conc. [5]: 9.6 ± 0.1 mg/dL | Urinary hydroxyproline excretion (ratio to creatinine) [7]: 107.1 ± 6.5 μg/mg creatinine | Collagenase Inhibition rates in blood after oral administration, After 1 hour [8]: 14% | Collagenase Inhibition rates in blood after oral administration, After 2 hours [8]: 21%

CNC(=O)[C@H](Cc1c[nH]c2ccccc12)NC(=O)[C@@H](CC(=O)NO)CC(C)C [Known compound Z, [4-(N-hydroxyamino)-2(R)-isobutylsuccinyl]-L-tryptophan-N-methylamide, reference compound]
Collagenase Inhibition rates in blood after oral administration, After 1 hour [8]: 58% | Collagenase Inhibition rates in blood after oral administration, After 2 hours [8]: 51%

— patent US5795891A, “Acylphenylglycine derivative and preventive and remedy for diseases caused by increased collagenase activity containing said compound as active ingredient” (Kanebo Ltd., priority 1993, dated 1998)
